Experimental data as given in ChEMBL document CHEMBL3272195, “Synthesis and antimicrobial activity of certain 6H-1,2,4-oxadiazin-3(2H)-ones” (1977).
Values after ≈ are worked out from the molar mass of the structure shown. Active and inactive are the calls of the source. The calls are words filed in the database; no cut-off is given here.

system: Escherichia coli; assay: Antimicrobial activity against Escherichia coli after 24 hrs by broth dilution assay; format: functional

MIC [µM]	SMILES
> 400	O=C1NC(=S)CON1Cc1ccccc1
20 (≈ 5 µg/mL)	O=C1CON(C(=O)OCc2ccccc2)C(=O)N1
< 5	O=C1NOCC(=S)N1
320 (≈ 41.3 µg/mL)	CNC1=NC(=O)NOC1
> 400	O=C1N=C(NO)CON1
160 (≈ 25.9 µg/mL)	CCOC(=O)CONC(N)=O
320 (≈ 90 µg/mL)	O=C1N=C(NC(c2ccccc2)c2ccccc2)CON1
10 (≈ 1.16 µg/mL)	O=C1CONC(=O)N1
10 (≈ 1.15 µg/mL)	NC1=NC(=O)NOC1
> 400	NNC1=NC(=O)NOC1
320 (≈ 65.7 µg/mL)	O=C1N=C(NCc2ccccc2)CON1
160 (≈ 22.9 µg/mL)	CN(C)C1=NC(=O)NOC1
> 400	CN1OCC(=S)NC1=O

system: Pseudomonas aeruginosa; assay: Antimicrobial activity against Pseudomonas aeruginosa after 24 hrs by broth dilution assay; format: functional

MIC [µM]	SMILES
> 400	O=C1NC(=S)CON1Cc1ccccc1
20 (≈ 5 µg/mL)	O=C1CON(C(=O)OCc2ccccc2)C(=O)N1
20 (≈ 2.64 µg/mL)	O=C1NOCC(=S)N1
> 400	CNC1=NC(=O)NOC1
> 400	O=C1N=C(NO)CON1
320 (≈ 51.9 µg/mL)	CCOC(=O)CONC(N)=O
320 (≈ 90 µg/mL)	O=C1N=C(NC(c2ccccc2)c2ccccc2)CON1
40 (≈ 4.64 µg/mL)	O=C1CONC(=O)N1
80 (≈ 9.21 µg/mL)	NC1=NC(=O)NOC1
> 400	NNC1=NC(=O)NOC1
> 400	O=C1N=C(NCc2ccccc2)CON1
> 400	CN(C)C1=NC(=O)NOC1
> 400	CN1OCC(=S)NC1=O

system: Staphylococcus aureus; assay: Antimicrobial activity against Staphylococcus aureus after 24 hrs by broth dilution assay; format: functional

MIC [µM]	SMILES
> 400	O=C1NC(=S)CON1Cc1ccccc1
80 (≈ 20 µg/mL)	O=C1CON(C(=O)OCc2ccccc2)C(=O)N1
10 (≈ 1.32 µg/mL)	O=C1NOCC(=S)N1
320 (≈ 41.3 µg/mL)	CNC1=NC(=O)NOC1
> 400	O=C1N=C(NO)CON1
80 (≈ 13 µg/mL)	CCOC(=O)CONC(N)=O
160 (≈ 45 µg/mL)	O=C1N=C(NC(c2ccccc2)c2ccccc2)CON1
20 (≈ 2.32 µg/mL)	O=C1CONC(=O)N1
320 (≈ 36.8 µg/mL)	NC1=NC(=O)NOC1
> 400	NNC1=NC(=O)NOC1
400 (≈ 82.1 µg/mL)	O=C1N=C(NCc2ccccc2)CON1
320 (≈ 45.8 µg/mL)	CN(C)C1=NC(=O)NOC1
> 400	CN1OCC(=S)NC1=O

system: Trichophyton mentagrophytes; assay: Antimicrobial activity against Trichophyton mentagrophytes after 48 hrs by broth dilution assay; format: functional

MIC [µM]	SMILES
160 (≈ 35.6 µg/mL)	O=C1NC(=S)CON1Cc1ccccc1
> 400	O=C1CON(C(=O)OCc2ccccc2)C(=O)N1
320 (≈ 42.3 µg/mL)	O=C1NOCC(=S)N1
320 (≈ 41.3 µg/mL)	CNC1=NC(=O)NOC1
> 400	O=C1N=C(NO)CON1
> 400	CCOC(=O)CONC(N)=O
> 400	O=C1N=C(NC(c2ccccc2)c2ccccc2)CON1
> 400	O=C1CONC(=O)N1
> 400	NC1=NC(=O)NOC1
> 400	NNC1=NC(=O)NOC1
> 400	O=C1N=C(NCc2ccccc2)CON1
> 400	CN(C)C1=NC(=O)NOC1
160 (≈ 23.4 µg/mL)	CN1OCC(=S)NC1=O

system: Candida albicans; assay: Antimicrobial activity against Candida albicans after 48 hrs by broth dilution assay; format: functional

MIC [µM]	SMILES
320 (≈ 71.1 µg/mL)	O=C1NC(=S)CON1Cc1ccccc1
> 400	O=C1CON(C(=O)OCc2ccccc2)C(=O)N1
320 (≈ 42.3 µg/mL)	O=C1NOCC(=S)N1
> 400	CNC1=NC(=O)NOC1
> 400	O=C1N=C(NO)CON1
> 400	CCOC(=O)CONC(N)=O
> 400	O=C1N=C(NC(c2ccccc2)c2ccccc2)CON1
> 400	O=C1CONC(=O)N1
> 400	NC1=NC(=O)NOC1
> 400	NNC1=NC(=O)NOC1
> 400	O=C1N=C(NCc2ccccc2)CON1
> 400	CN(C)C1=NC(=O)NOC1
400 (≈ 58.5 µg/mL)	CN1OCC(=S)NC1=O

system: Human alphaherpesvirus 1; assay: Antiviral activity against Herpes simplex virus type 1; format: functional, organism-based

SMILES	Activity
O=C1NC(=S)CON1Cc1ccccc1	inactive
O=C1CON(C(=O)OCc2ccccc2)C(=O)N1	inactive
O=C1NOCC(=S)N1	inactive
CNC1=NC(=O)NOC1	inactive
O=C1N=C(NO)CON1	inactive
O=C1N=C(NC(c2ccccc2)c2ccccc2)CON1	inactive
O=C1CONC(=O)N1	inactive
NC1=NC(=O)NOC1	inactive
NNC1=NC(=O)NOC1	inactive
O=C1N=C(NCc2ccccc2)CON1	inactive
CN(C)C1=NC(=O)NOC1	inactive
CN1OCC(=S)NC1=O	inactive

system: Human respirovirus 3; assay: Antiviral activity against Parainfluenza virus 3; format: functional, organism-based

SMILES	Activity
O=C1NC(=S)CON1Cc1ccccc1	inactive
O=C1CON(C(=O)OCc2ccccc2)C(=O)N1	inactive
O=C1NOCC(=S)N1	inactive
CNC1=NC(=O)NOC1	inactive
O=C1N=C(NO)CON1	inactive
O=C1N=C(NC(c2ccccc2)c2ccccc2)CON1	inactive
O=C1CONC(=O)N1	inactive
NC1=NC(=O)NOC1	inactive
NNC1=NC(=O)NOC1	inactive
O=C1N=C(NCc2ccccc2)CON1	inactive
CN(C)C1=NC(=O)NOC1	inactive
CN1OCC(=S)NC1=O	inactive

system: Human rhinovirus A13; assay: Antiviral activity against Rhinovirus A13; format: functional

SMILES	Activity
O=C1NC(=S)CON1Cc1ccccc1	inactive
O=C1CON(C(=O)OCc2ccccc2)C(=O)N1	inactive
O=C1NOCC(=S)N1	inactive
CNC1=NC(=O)NOC1	inactive
O=C1N=C(NO)CON1	inactive
O=C1N=C(NC(c2ccccc2)c2ccccc2)CON1	inactive
O=C1CONC(=O)N1	inactive
NC1=NC(=O)NOC1	inactive
NNC1=NC(=O)NOC1	inactive
O=C1N=C(NCc2ccccc2)CON1	inactive
CN(C)C1=NC(=O)NOC1	inactive
CN1OCC(=S)NC1=O	inactive

system: Escherichia coli; assay: Antimicrobial activity against Escherichia coli paper disc treated with 24 hrs urine sample from 100 mg/kg, po compound treated ICR mouse measured after 18 to 24 hrs by disc diffusion assay; format: functional, organism-based; design: dose 100 mg/kg

SMILES	Activity
O=C1CON(C(=O)OCc2ccccc2)C(=O)N1	inactive
O=C1NOCC(=S)N1	inactive
O=C1CONC(=O)N1	inactive
NC1=NC(=O)NOC1	Active

system: Pseudomonas aeruginosa; assay: Antimicrobial activity against Pseudomonas aeruginosa paper disc treated with 24 hrs urine sample from 100 mg/kg, po compound treated ICR mouse measured after 18 to 24 hrs by disc diffusion assay; format: functional, organism-based; design: dose 100 mg/kg

SMILES	Activity
O=C1CON(C(=O)OCc2ccccc2)C(=O)N1	inactive
O=C1NOCC(=S)N1	inactive
O=C1CONC(=O)N1	inactive
NC1=NC(=O)NOC1	Active
